Experimental data as given in patent US11331327B2, “Antibacterial use of halogenated salicylanilides” (UNION therapeutics A/S, priority 2014, dated 2022).
Converted amounts (≈) assume the structure as drawn.

Tested on: S. aureus clinical isolates and S. aureus ATCC 29213
Test: MIC assay according to CLSI criteria, Example 2, S. aureus strains
Format: cell-based, Staphylococcus aureus
Conditions: Staphylococcus aureus
Outline: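 S. aureus grown aerobically in cation-adjusted Mueller Hinton broth at 37° C. Exponential-phase cultures inoculated at about 5×10^5 cells per well, then incubated 18 hours at 37° C.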

## CN[C@H](CC(C)C)C(=O)N[C@H]1C(=O)N[C@@H](CC(N)=O)C(=O)N[C@H]2C(=O)N[C@H]3C(=O)N[C@H](C(=O)N[C@H](C(=O)O)c4cc(O)cc(O)c4-c4cc3ccc4O)[C@H](O)c3ccc(c(Cl)c3)Oc3cc2cc(c3O[C@@H]2O[C@H](CO)[C@@H](O)[C@H](O)[C@H]2O[C@H]2C[C@](C)(N)[C@H](O)[C@H](C)O2)Oc2ccc(cc2Cl)[C@H]1O [Vancomycin]
ATCC 29213 / MRSA, strain MRSA 15
  MIC: 2 µg/mL (≈ 1.38 µM)
ATCC 29213 / MRSA, strain MRSA 16
  MIC: 1 µg/mL (≈ 0.69 µM)
ATCC 29213 / MRSA, strain MRSA 17
  MIC: 2 µg/mL (≈ 1.38 µM)
ATCC 29213 / MRSA, strain MRSA 18
  MIC: 1 µg/mL (≈ 0.69 µM)
ATCC 29213 / MRSA, strain MRSA 19
  MIC: 1 µg/mL (≈ 0.69 µM)
ATCC 29213 / MRSA, strain MRSA 20
  MIC: 1 µg/mL (≈ 0.69 µM)
ATCC 29213 / MRSA, strain MRSA 21
  MIC: 1 µg/mL (≈ 0.69 µM)
ATCC 29213 / MRSA, strain MRSA 22
  MIC: 0.5 µg/mL (≈ 0.345 µM)
ATCC 29213 / MRSA, strain MRSA 23
  MIC: 1 µg/mL (≈ 0.69 µM)
ATCC 29213 / MRSA, strain MRSA 24
  MIC: 2 µg/mL (≈ 1.38 µM)
ATCC 29213 / MRSA, strain MRSA 25
  MIC: 1 µg/mL (≈ 0.69 µM)
ATCC 29213 / MRSA, strain MRSA 26
  MIC: 1 µg/mL (≈ 0.69 µM)
ATCC 29213 / MRSA, strain MRSA 27
  MIC: 1 µg/mL (≈ 0.69 µM)
ATCC 29213 / MRSA, strain MRSA 27b
  MIC: 1 µg/mL (≈ 0.69 µM)
ATCC 29213 / MRSA, strain MRSA 28
  MIC: 1 µg/mL (≈ 0.69 µM)
ATCC 29213 / MRSA, strain MRSA 29
  MIC: 1 µg/mL (≈ 0.69 µM)
ATCC 29213 / MRSA, strain MRSA 30
  MIC: 1 µg/mL (≈ 0.69 µM)
ATCC 29213 / MRSA, strain MRSA 31
  MIC: 1 µg/mL (≈ 0.69 µM)
ATCC 29213 / MRSA, strain MRSA 32
  MIC: 1 µg/mL (≈ 0.69 µM)
ATCC 29213 / MRSA, strain MRSA 33
  MIC: 1 µg/mL (≈ 0.69 µM)
ATCC 29213 / MRSA, strain MRSA 34
  MIC: 1 µg/mL (≈ 0.69 µM)
ATCC 29213 / MRSA, strain MRSA 35
  MIC: 1 µg/mL (≈ 0.69 µM)
ATCC 29213 / MRSA, strain MRSA 36
  MIC: 1 µg/mL (≈ 0.69 µM)
ATCC 29213 / MRSA, strain MRSA 37
  MIC: 1 µg/mL (≈ 0.69 µM)
ATCC 29213 / MRSA, strain MRSA 38
  MIC: 1 µg/mL (≈ 0.69 µM)
ATCC 29213 / MRSA, strain MRSA 39
  MIC: 1 µg/mL (≈ 0.69 µM)
ATCC 29213 / MRSA, strain MRSA 40
  MIC: 1 µg/mL (≈ 0.69 µM)
ATCC 29213 / MRSA, strain MRSA 41
  MIC: 1 µg/mL (≈ 0.69 µM)
ATCC 29213 / MRSA, strain MRSA 42
  MIC: 1 µg/mL (≈ 0.69 µM)
ATCC 29213 / MRSA, strain MRSA 43
  MIC: 1 µg/mL (≈ 0.69 µM)
ATCC 29213 / MRSA, strain MRSA 44
  MIC: 1 µg/mL (≈ 0.69 µM)
ATCC 29213 / MRSA, strain MRSA 45
  MIC: 1 µg/mL (≈ 0.69 µM)
ATCC 29213 / MRSA, strain MRSA 46
  MIC: 1 µg/mL (≈ 0.69 µM)
ATCC 29213 / MRSA, strain MRSA 47
  MIC: 0.5 µg/mL (≈ 0.345 µM)
ATCC 29213 / MRSA, strain MRSA 48
  MIC: 0.5 µg/mL (≈ 0.345 µM)
ATCC 29213 / MRSA, strain MRSA 49
  MIC: 2 µg/mL (≈ 1.38 µM)
ATCC 29213 / MRSA, strain MRSA 50
  MIC: 1 µg/mL (≈ 0.69 µM)
ATCC 29213 / MRSA, strain MRSA 51
  MIC: 1 µg/mL (≈ 0.69 µM)
ATCC 29213 / MRSA, strain MRSA 52
  MIC: 1 µg/mL (≈ 0.69 µM)
ATCC 29213 / MRSA, strain MRSA 53
  MIC: 1 µg/mL (≈ 0.69 µM)
ATCC 29213 / MRSA, strain MRSA 54
  MIC: 2 µg/mL (≈ 1.38 µM)
ATCC 29213 / MRSA, strain MRSA 55
  MIC: 0.5 µg/mL (≈ 0.345 µM)
ATCC 29213 / MRSA, strain MRSA 56
  MIC: 1 µg/mL (≈ 0.69 µM)
ATCC 29213 / MRSA, strain MRSA 57
  MIC: 1 µg/mL (≈ 0.69 µM)
ATCC 29213 / MRSA, strain MRSA 58
  MIC: 1 µg/mL (≈ 0.69 µM)
ATCC 29213 / MRSA, strain MRSA 59
  MIC: 1 µg/mL (≈ 0.69 µM)
ATCC 29213 / MRSA, strain MRSA 60
  MIC: 0.5 µg/mL (≈ 0.345 µM)
ATCC 29213 / MRSA, strain MRSA 61
  MIC: 2 µg/mL (≈ 1.38 µM)
ATCC 29213 / MRSA, strain MRSA 62
  MIC: 2 µg/mL (≈ 1.38 µM)
ATCC 29213 / MRSA, strain MRSA 63
  MIC: 1 µg/mL (≈ 0.69 µM)
ATCC 29213 / MRSA, strain MRSA 64
  MIC: 1 µg/mL (≈ 0.69 µM)
ATCC 29213 / MRSA, strain MRSA 65
  MIC: 1 µg/mL (≈ 0.69 µM)
ATCC 29213 / MRSA, strain MRSA 66
  MIC: 1 µg/mL (≈ 0.69 µM)
ATCC 29213 / MRSA, strain MRSA 67
  MIC: 1 µg/mL (≈ 0.69 µM)
ATCC 29213 / MRSA, strain MRSA 68
  MIC: 1 µg/mL (≈ 0.69 µM)
ATCC 29213 / MRSA, strain MRSA 69
  MIC: 1 µg/mL (≈ 0.69 µM)
ATCC 29213 / MRSA, strain MRSA 70
  MIC: 1 µg/mL (≈ 0.69 µM)
ATCC 29213 / MRSA, strain MRSA 71
  MIC: 1 µg/mL (≈ 0.69 µM)
ATCC 29213 / MRSA, strain MRSA 72
  MIC: 1 µg/mL (≈ 0.69 µM)
ATCC 29213 / MRSA, strain MRSA 73
  MIC: 1 µg/mL (≈ 0.69 µM)
ATCC 29213 / MRSA, strain MRSA 74
  MIC: 2 µg/mL (≈ 1.38 µM)
ATCC 29213 / MRSA, strain MRSA 75
  MIC: 1 µg/mL (≈ 0.69 µM)
ATCC 29213 / MRSA, strain MRSA 76
  MIC: 1 µg/mL (≈ 0.69 µM)
ATCC 29213 / MRSA, strain MRSA 77
  MIC: 2 µg/mL (≈ 1.38 µM)
ATCC 29213 / MRSA, strain MRSA 78
  MIC: 1 µg/mL (≈ 0.69 µM)
ATCC 29213 / MRSA, strain MRSA 79
  MIC: 1 µg/mL (≈ 0.69 µM)
ATCC 29213 / MRSA, strain MRSA 80
  MIC: 1 µg/mL (≈ 0.69 µM)
ATCC 29213 / MRSA, strain MRSA 81
  MIC: 1 µg/mL (≈ 0.69 µM)
ATCC 29213 / MRSA, strain MRSA 82
  MIC: 2 µg/mL (≈ 1.38 µM)
ATCC 29213 / MRSA, strain MRSA 83
  MIC: 1 µg/mL (≈ 0.69 µM)
ATCC 29213 / MRSA, strain MRSA 84
  MIC: 2 µg/mL (≈ 1.38 µM)
ATCC 29213 / MRSA, strain MRSA 85
  MIC: 1 µg/mL (≈ 0.69 µM)
ATCC 29213 / MRSA, strain MRSA 86
  MIC: 2 µg/mL (≈ 1.38 µM)
ATCC 29213 / MRSA, strain MRSA 87
  MIC: 1 µg/mL (≈ 0.69 µM)
ATCC 29213 / MRSA, strain MRSA 88
  MIC: 1 µg/mL (≈ 0.69 µM)
ATCC 29213 / MRSA, strain MRSA 89
  MIC: 1 µg/mL (≈ 0.69 µM)
ATCC 29213 / MRSA, strain MRSA 90
  MIC: 1 µg/mL (≈ 0.69 µM)
ATCC 29213 / MRSA, strain MRSA 91
  MIC: 1 µg/mL (≈ 0.69 µM)
ATCC 29213 / MRSA, strain MRSA 92
  MIC: 1 µg/mL (≈ 0.69 µM)
ATCC 29213 / MRSA, strain MRSA 93
  MIC: 2 µg/mL (≈ 1.38 µM)
ATCC 29213 / MRSA, strain MRSA 94
  MIC: 2 µg/mL (≈ 1.38 µM)
ATCC 29213 / MRSA, strain MRSA 95
  MIC: 2 µg/mL (≈ 1.38 µM)
ATCC 29213 / MRSA, strain MRSA 96
  MIC: 1 µg/mL (≈ 0.69 µM)
ATCC 29213 / MRSA, strain MRSA 97
  MIC: 1 µg/mL (≈ 0.69 µM)
ATCC 29213 / MRSA, strain MRSA 98
  MIC: 1 µg/mL (≈ 0.69 µM)
ATCC 29213 / MRSA, strain MRSA 99
  MIC: 1 µg/mL (≈ 0.69 µM)
ATCC 29213 / MRSA, strain MRSA 100
  MIC: 1 µg/mL (≈ 0.69 µM)
ATCC 29213 / MRSA, strain MRSA 101
  MIC: 1 µg/mL (≈ 0.69 µM)
ATCC 29213 / MRSA, strain MRSA 102
  MIC: 2 µg/mL (≈ 1.38 µM)
ATCC 29213 / MRSA, strain MRSA 103
  MIC: 1 µg/mL (≈ 0.69 µM)
ATCC 29213 / MRSA, strain MRSA 104
  MIC: 1 µg/mL (≈ 0.69 µM)
ATCC 29213 / MRSA, strain MRSA 105
  MIC: 1 µg/mL (≈ 0.69 µM)
ATCC 29213 / MRSA, strain MRSA 106
  MIC: 1 µg/mL (≈ 0.69 µM)
ATCC 29213 / MRSA, strain MRSA 107
  MIC: 2 µg/mL (≈ 1.38 µM)
ATCC 29213 / MRSA, strain MRSA 108
  MIC: 1 µg/mL (≈ 0.69 µM)
ATCC 29213 / MRSA, strain MRSA 109
  MIC: 1 µg/mL (≈ 0.69 µM)
ATCC 29213 / MRSA, strain MRSA 110
  MIC: 1 µg/mL (≈ 0.69 µM)
ATCC 29213 / MRSA, strain MRSA 111
  MIC: 1 µg/mL (≈ 0.69 µM)
ATCC 29213 / MRSA, strain MRSA 112
  MIC: 1 µg/mL (≈ 0.69 µM)
ATCC 29213 / MRSA, strain MRSA 113
  MIC: 1 µg/mL (≈ 0.69 µM)
ATCC 29213 / MSSA, strain MSSA 01
  MIC: 1 µg/mL (≈ 0.69 µM)
ATCC 29213 / MSSA, strain MSSA 02
  MIC: 1 µg/mL (≈ 0.69 µM)
ATCC 29213 / NEWMAN, strain Newman
  MIC: 2 µg/mL (≈ 1.38 µM)
